Results: ChEMBL document CHEMBL5352388 (Eur J Med Chem, 2022)
Active and inactive are the calls of the source. No cut-off for these calls is given here.

Columns and labels:
[1] = target: T1, Lysine-specific histone demethylase 1A (Homo sapiens, UniProt O60341); experiment: Binding affinity to LSD1 in human A549 cells assessed as increase in thermal stability at 10 uM incubated for 1 hr by cellular thermal shift assay; type: cell-based
[2] = target: Voltage-gated inwardly rectifying potassium channel KCNH2 (Homo sapiens, UniProt Q12809); experiment: Inhibition of human ERG stably expressed in CHO cells by patch clamp assay; type: toxicity, cell-based
[3] = Oral bioavailability in Sprague-Dawley rat at 10 mg/kg by LC-MS/MS analysis; type: ADME, organism-based; settings: in vivo
[4] = target: CYP3A4 (Homo sapiens, UniProt P08684); experiment: Inhibition of CYP3A4 (unknown origin) at 10 uM incubated for 20 mins in presence of NADPH by LC/MS/MS analysis relative to control; type: ADME
[5] = tested on: A549; experiment: Induction of apoptosis in human A549 cells assessed as upregulation of Bax at 1 to 4 uM incubated for 72 hrs by Western blotting assay; type: functional, cell-based; settings: dose 1-4 µM
[6] = AUC (0-t) in Sprague-Dawley rat at 3 mg/kg,iv by LC-MS/MS analysis; type: ADME, organism-based; parameters: dose 3 mg/kg, route iv; settings: in vivo
[7] = tested on: A549; experiment: cells; settings: Homo sapiens, A549, 72 h
Description: Antiproliferative activity against human A549 cells assessed as inhibition of cell growth incubated for 72 hrs by CCK-8 assay

[8] = target: T1, Lysine-specific histone demethylase 1A; experiment: Inhibition of LSD1 in human A549 cells assessed as increase in H3K9me2 protein level at 1 to 4 uM incubated for 72 hrs by Western blotting assay; type: cell-based; settings: dose 1-4 µM
[9] = Metabolic stability in human liver microsomes assessed as compound remaining measured upto 60 mins in presence of NADPH by LC/MS/MS analysis; type: ADME, Microsome; settings: read-out: Stability
[10] = Half life in human liver microsomes measured upto 60 mins in presence of NADPH by LC/MS/MS analysis; type: ADME, Microsome
[11] = tested on: A549; experiment: Inhibition of colony formation in human A549 cells at 2 uM; type: functional, cell-based
[12] = target: CYP2C9 (Homo sapiens, UniProt P11712); experiment: Inhibition of CYP2C9 (unknown origin) at 10 uM incubated for 20 mins in presence of NADPH by LC/MS/MS analysis relative to control; type: ADME
[13] = tested on: A549; experiment: Antitumor activity against human A549 cells xenografted in BALB/c mouse assessed as reduction in tumor growth at 20 mg/kg,ip administrated for 15 days; type: functional, organism-based; settings: time 15.0 day
[14] = target: T2, CYP1A2 (Homo sapiens, UniProt P05177); experiment: Inhibition of CYP1A2 (unknown origin) at 10 uM incubated for 20 mins in presence of NADPH by LC/MS/MS analysis relative to control; type: ADME
T2 sequence (P05177 whole entry): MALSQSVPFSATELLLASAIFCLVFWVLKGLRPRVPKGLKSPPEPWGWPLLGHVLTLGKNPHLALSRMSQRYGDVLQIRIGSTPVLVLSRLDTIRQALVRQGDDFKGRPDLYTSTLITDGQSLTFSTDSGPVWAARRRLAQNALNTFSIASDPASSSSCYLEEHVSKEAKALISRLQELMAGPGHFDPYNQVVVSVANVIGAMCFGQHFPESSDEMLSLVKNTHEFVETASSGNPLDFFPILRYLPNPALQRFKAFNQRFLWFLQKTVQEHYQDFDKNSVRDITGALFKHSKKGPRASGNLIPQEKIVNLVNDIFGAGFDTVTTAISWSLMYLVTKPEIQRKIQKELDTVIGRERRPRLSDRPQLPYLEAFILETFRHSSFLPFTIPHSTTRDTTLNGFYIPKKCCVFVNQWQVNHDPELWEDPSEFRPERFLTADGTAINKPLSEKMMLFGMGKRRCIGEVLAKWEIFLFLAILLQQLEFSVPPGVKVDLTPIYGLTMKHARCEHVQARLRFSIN

[15] = target: T1, Lysine-specific histone demethylase 1A; experiment: Inhibition of LSD1 in human A549 cells assessed as increase in H3K4me2 protein level at 1 to 4 uM incubated for 72 hrs by Western blotting assay; type: cell-based; settings: dose 1-4 µM
[16] = Intrinsic clearance in human liver microsomes measured upto 60 mins in presence of NADPH by LC/MS/MS analysis; type: ADME, Microsome; settings: read-out: CLH
[17] = tested on: A549; experiment: Antitumor activity against human A549 cells xenografted in BALB/c mouse assessed as decrease in tumor cell density at 20 mg/kg,ip administrated for 15 days; type: functional, organism-based; settings: time 15.0 day
[18] = AUC (0-infinity) in Sprague-Dawley rat at 10 mg/kg,po by LC-MS/MS analysis; type: ADME, organism-based; parameters: dose 10 mg/kg, route po; settings: in vivo
[19] = tested on: A549; experiment: Antitumor activity against human A549 cells xenografted in BALB/c mouse assessed as reduction in KI67 positive cells at 10 mg/kg,ip administrated for 15 days; type: functional, organism-based; settings: time 15.0 day
[20] = Toxicity in BALB/c mouse xenografted with human A549 cells assessed as change in body weight at 20 mg/kg,ip administrated for 15 days; type: organism-based; settings: in vivo, 360 h, time 15 day
[21] = tested on: HeLa; experiment: Antiproliferative activity against human HeLa cells assessed as inhibition of cell growth incubated for 72 hrs by CCK-8 assay; type: functional, cell-based
[22] = tested on: A549; experiment: Antitumor activity against human A549 cells xenografted in BALB/c mouse assessed as decrease in tumor cell density at 10 mg/kg,ip administrated for 15 days; type: functional, organism-based; settings: time 15.0 day
[23] = tested on: A549; experiment: Antitumor activity against human A549 cells xenografted in BALB/c mouse assessed as reduction in KI67 positive cells at 20 mg/kg,ip administrated for 15 days; type: functional, organism-based; settings: time 15.0 day
[24] = Metabolic stability in human liver microsomes assessed as compound remaining measured upto 60 mins by LC/MS/MS analysis; type: ADME, Microsome; settings: read-out: Stability
[25] = AUC (0-t) in Sprague-Dawley rat at 10 mg/kg,po by LC-MS/MS analysis; type: ADME, organism-based; parameters: dose 10 mg/kg, route po; settings: in vivo
[26] = target: T1, Lysine-specific histone demethylase 1A; experiment: Reversible inhibition of LSD-1 (unknown origin) by jump dilution assay
[27] = tested on: A549; experiment: Antitumor activity against human A549 cells xenografted in BALB/c mouse assessed as appearance of pyknosis at 10 mg/kg,ip administrated for 15 days; type: functional, organism-based; settings: time 15.0 day

Sequence of CYP3A4 (P08684 whole entry): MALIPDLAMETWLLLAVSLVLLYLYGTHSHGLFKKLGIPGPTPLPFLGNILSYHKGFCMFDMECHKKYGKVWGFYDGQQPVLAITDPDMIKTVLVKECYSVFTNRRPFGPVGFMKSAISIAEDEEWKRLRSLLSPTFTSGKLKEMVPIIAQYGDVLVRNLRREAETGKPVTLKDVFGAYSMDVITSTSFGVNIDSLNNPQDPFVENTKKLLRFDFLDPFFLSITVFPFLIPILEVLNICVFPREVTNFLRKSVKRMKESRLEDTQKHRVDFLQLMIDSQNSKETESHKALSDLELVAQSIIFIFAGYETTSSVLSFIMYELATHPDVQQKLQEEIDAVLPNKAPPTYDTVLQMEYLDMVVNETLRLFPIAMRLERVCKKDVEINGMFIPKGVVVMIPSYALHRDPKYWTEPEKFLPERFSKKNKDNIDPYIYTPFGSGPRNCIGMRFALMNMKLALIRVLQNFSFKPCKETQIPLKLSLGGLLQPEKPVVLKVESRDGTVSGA
Sequence of Voltage-gated inwardly rectifying potassium channel KCNH2 (Q12809 whole entry): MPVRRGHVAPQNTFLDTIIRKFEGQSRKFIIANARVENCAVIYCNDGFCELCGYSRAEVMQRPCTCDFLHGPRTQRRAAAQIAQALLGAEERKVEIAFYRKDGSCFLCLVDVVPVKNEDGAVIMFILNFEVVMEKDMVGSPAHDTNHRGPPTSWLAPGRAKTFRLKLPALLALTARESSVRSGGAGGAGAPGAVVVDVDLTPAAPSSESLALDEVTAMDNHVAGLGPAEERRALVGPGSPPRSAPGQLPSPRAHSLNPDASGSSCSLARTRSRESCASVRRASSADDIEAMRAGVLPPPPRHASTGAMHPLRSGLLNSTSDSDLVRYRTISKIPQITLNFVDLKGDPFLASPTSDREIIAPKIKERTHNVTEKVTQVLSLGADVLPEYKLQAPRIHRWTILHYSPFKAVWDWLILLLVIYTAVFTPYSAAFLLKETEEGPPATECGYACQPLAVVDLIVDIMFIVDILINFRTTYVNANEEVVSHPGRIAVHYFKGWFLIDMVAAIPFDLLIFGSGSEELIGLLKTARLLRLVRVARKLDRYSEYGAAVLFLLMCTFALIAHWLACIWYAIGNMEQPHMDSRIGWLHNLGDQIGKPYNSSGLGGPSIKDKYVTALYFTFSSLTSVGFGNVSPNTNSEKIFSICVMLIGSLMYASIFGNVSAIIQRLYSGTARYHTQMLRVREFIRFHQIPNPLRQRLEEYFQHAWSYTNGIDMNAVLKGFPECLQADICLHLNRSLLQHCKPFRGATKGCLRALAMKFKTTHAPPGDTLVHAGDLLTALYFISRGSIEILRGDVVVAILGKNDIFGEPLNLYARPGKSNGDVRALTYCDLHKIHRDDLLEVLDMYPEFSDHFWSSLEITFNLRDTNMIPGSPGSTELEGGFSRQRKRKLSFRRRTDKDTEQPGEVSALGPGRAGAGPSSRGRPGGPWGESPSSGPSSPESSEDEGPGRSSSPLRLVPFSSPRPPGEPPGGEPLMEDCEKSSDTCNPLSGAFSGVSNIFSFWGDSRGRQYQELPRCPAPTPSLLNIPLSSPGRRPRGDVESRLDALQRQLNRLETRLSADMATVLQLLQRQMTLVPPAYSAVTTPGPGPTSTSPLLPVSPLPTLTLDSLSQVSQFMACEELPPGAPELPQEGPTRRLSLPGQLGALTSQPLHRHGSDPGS
Sequence of CYP2C9 (P11712 whole entry): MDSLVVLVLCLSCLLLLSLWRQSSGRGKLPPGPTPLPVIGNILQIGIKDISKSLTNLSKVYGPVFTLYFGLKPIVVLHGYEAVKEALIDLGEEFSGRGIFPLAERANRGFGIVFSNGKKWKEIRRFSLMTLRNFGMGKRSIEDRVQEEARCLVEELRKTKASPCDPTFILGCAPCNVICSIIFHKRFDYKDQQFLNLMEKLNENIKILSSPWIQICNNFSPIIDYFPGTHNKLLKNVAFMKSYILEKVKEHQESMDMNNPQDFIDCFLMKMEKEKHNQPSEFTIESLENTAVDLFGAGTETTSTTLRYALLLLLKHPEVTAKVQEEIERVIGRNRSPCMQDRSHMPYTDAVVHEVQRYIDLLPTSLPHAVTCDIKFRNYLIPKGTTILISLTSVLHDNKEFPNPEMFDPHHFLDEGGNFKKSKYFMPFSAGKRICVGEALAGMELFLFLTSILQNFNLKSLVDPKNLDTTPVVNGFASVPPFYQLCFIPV

Cc1ccc(-c2cc3c(cc2-c2ccc(C#N)cc2)c(C(=O)N2CCC(N)CC2)cn3S(=O)(=O)c2ccc(F)cc2)cc1
Activity [1]: Active | IC50 [2]: 5.11 µM | bioavailability [3]: 7.49% | inhibition at 20 min, 10 µM [4]: 56.8% | Activity [5]: Dose-Dependent Effect | AUC(0-t) [6]: 1320 ng·h/mL | IC50 [7]: 0.74 µM | inhibition [8]: Dose-Dependent Effect | remaining at 1 h [9]: 79.2% | half-life [10]: 2.42 h | inhibition [11]: Active | inhibition at 20 min, 10 µM [12]: 47.7% | Activity [13]: Active | inhibition at 20 min, 10 µM [14]: 0% | inhibition [15]: Dose-Dependent Effect | microsomal CLint [16]: 9.6 µL/min/mg | Activity [17]: Active | AUC(0-inf) [18]: 362 ng·h/mL | Activity [19]: Active | Activity [20]: Non-Toxic | IC50 [21]: 3.3 µM | Activity [22]: Active | Activity [23]: Active | remaining at 1 h [24]: 102% | AUC(0-t) [25]: 329 ng·h/mL | inhibition [26]: Active | Activity [27]: Active
